Test results taken from patent US8580971B2, “Alkyl-analide producing method” (Bayer CropScience AG, priority 2005, dated 2013).
Values belong to the molecule of their own block, whether it stands above or below them.

Tests used:
Botrytis cinerea = test: Botrytis test (bean)/protective; format: in vivo; details: protective spray, application rate 100 ppm, lesion size evaluated 2 days after inoculation
Protocol: [table] To prepare an expedient active compound preparation, 1 part by weight of active compound is mixed with the stated amounts of solvent and emulsifier, and the concentrate is diluted to the desired concentration with water. To test for protective activity, young plants are sprayed with the active compound preparation at the application rate stated. After the spray coating has dried on, 2 small agar blocks which sustain the growth of Botrytis cinerea are placed on each leaf. The inoculated plants are placed in a darkened chamber at approximately 20° C. and 100% relative atmospheric humidity. 2 days after the inoculation, the size of the lesions on the leaves is evaluated. 0% means an efficacy which corresponds to that of the control, while an efficacy of 100% means that no disease is observed.

[1] = logP determination by HPLC on reversed-phase column (C18), EEC Directive 79/831 Annex V.A8; format: physicochemical; details: pH 2.3, HPLC reversed-phase C18, 43° C., 0.1% aqueous phosphoric acid/acetonitrile
Protocol: The logP values stated in the above tables and preparation examples are determined as described in EEC Directive 79/831 Annex V.A8 by means of HPLC (high performance liquid chromatography) on a reversed-phase column (C18). Temperature: 43° C. The determination is effected in the acidic range at pH 2.3 using 0.1% aqueous phosphoric acid and acetonitrile as eluents; linear gradient from 10% acetonitrile to 90% acetonitrile. The calibration is effected with unbranched alkan-2-ones (having 3 to 16 carbon atoms) whose logP values are known (determination of the logP values with reference to the retention times by linear interpolation between two successive alkanones).

Pyrenophora teres = Pyrenophora teres test (barley)/protective; format: in vivo; details: protective spray, application rate 1000 ppm, evaluated 8 days after inoculation
Protocol: Pyrenophora teres Test (Barley)/Protective To prepare an expedient active compound preparation, 1 part by weight of active compound is mixed with the stated amounts of solvent and emulsifier, and the concentrate is diluted to the desired concentration with water. To test for protective activity, young plants are sprayed with the active compound preparation at the application rate stated. After the spray coating has dried on, the plants are sprayed with a conidial suspension of Pyrenophora teres. The plants remain in an incubation cabinet for 48 hours at 20° C. and 100% relative atmospheric humidity. The plants are then placed into a greenhouse at a temperature of approximately 20° C. and a relative atmospheric humidity of approximately 80%. The test is evaluated 8 days after the inoculation. 0% means an efficacy which corresponds to that of the control, while an efficacy of 100% means that no disease is observed.

[2] = test system: Erysiphe graminis fsp. hordei; test: Erysiphe test (barley)/protective; format: in vivo; details: protective spray, application rate 1000 ppm, evaluated 7 days after inoculation
Protocol: Erysiphe Test (Barley)/Protective To prepare an expedient active compound preparation, 1 part by weight of active compound is mixed with the stated amounts of solvent and emulsifier, and the concentrate is diluted to the desired concentration with water. To test for protective activity, young plants are sprayed with the active compound preparation at the application rate stated. After the spray coating has dried on, the plants are dusted with spores of Erysiphe graminis fsp. hordei. The plants are placed in a greenhouse at a temperature of approximately 20° C. and a relative atmospheric humidity of approximately 80% to favour the development of mildew pustules. The test is evaluated 7 days after the inoculation. 0% means an efficacy which corresponds to that of the control, while an efficacy of 100% means that no disease is observed.

Leptosphaeria nodorum = Leptosphaeria nodorum test (wheat)/protective; format: in vivo; details: protective spray, application rate 1000 ppm, evaluated 10 days after inoculation
Protocol: Leptosphaeria nodorum Test (Wheat)/Protective To prepare an expedient active compound preparation, 1 part by weight of active compound is mixed with the stated amounts of solvent and emulsifier, and the concentrate is diluted to the desired concentration with water. To test for protective activity, young plants are sprayed with the active compound preparation at the application rate stated. After the spray coating has dried on, the plants are sprayed with a spore suspension of Leptosphaeria nodorum. The plants remain in an incubation cabinet for 48 hours at 20° C. and 100% relative atmospheric humidity. The plants are then placed into a greenhouse at a temperature of approximately 15° C. and a relative atmospheric humidity of approximately 80%. The test is evaluated 10 days after the inoculation. 0% means an efficacy which corresponds to that of the control, while an efficacy of 100% means that no disease is observed.

Structure (SMILES): Cn1cc(C(=O)Nc2ccc(F)cc2-c2ccc(F)c(Cl)c2)c(C(F)F)n1
- Efficacy in % (Botrytis cinerea): 87%

- chromatographic logP [1]: 3.05
Structure (SMILES): Cn1cc(C(=O)Nc2ccc(F)cc2-c2ccc(Cl)c(F)c2)c(C(F)F)n1 [Example 1, N-(4′-chloro-3′,5-difluorobiphenyl-2-yl)-3-(difluoromethyl)-1-methyl-1H-pyrazole-4-carboxamide]

- chromatographic logP [1]: 2.94
Structure (SMILES): Cc1ccc(-c2cc(F)ccc2N)cc1F [Example (III-2), 5,3′-difluoro-4′-methylbiphenyl-2-ylamine]

- chromatographic logP [1]: 3.26
Structure (SMILES): Cn1cc(C(=O)Nc2ccc(F)cc2-c2ccc(Cl)c(F)c2)c(C(F)(F)F)n1 [N-(4′-chloro-5,3′-difluorobiphenyl-2-yl)-1-methyl-3-trifluoromethyl-1H-pyrazole-4-carboxamide]

- chromatographic logP [1]: 3.27
Structure (SMILES): Cc1ccc(-c2cc(F)ccc2NC(=O)c2cn(C)nc2C(F)(F)F)cc1F [N-(5,3′-difluoro-4′-methylbiphenyl-2-yl)-1-methyl-3-trifluoromethyl-1H-pyrazole-4-carboxamide]

- chromatographic logP [1]: 3.05
Structure (SMILES): Cc1ccc(-c2cc(F)ccc2NC(=O)c2cn(C)nc2C(F)F)cc1F [N-(5,3′-difluoro-4′-methylbiphenyl-2-yl)-3-difluoromethyl-1-methyl-1H-pyrazole-4-carboxamide]

Structure (SMILES): Cn1cc(C(=O)Nc2cc(F)ccc2-c2ccc(F)c(Cl)c2)c(C(F)F)n1 [drawing 15, reference compound]
- Efficacy in % (Botrytis cinerea): 52%

Structure (SMILES): Cn1cc(C(=O)Nc2ccc(F)cc2-c2ccc(Cl)c(F)c2)c(C(F)F)n1 [drawing 17]
- Efficacy in % (Botrytis cinerea): 100%

Structure (SMILES): Cn1cc(C(=O)Nc2cc(F)ccc2-c2ccc(F)c(Cl)c2)c(C(F)F)n1 [drawing 18, reference compound]
- Efficacy in % (Pyrenophora teres): 93%

Structure (SMILES): Cn1cc(C(=O)Nc2ccc(F)cc2-c2ccc(Cl)c(F)c2)c(C(F)F)n1 [drawing 19]
- Efficacy in % (Pyrenophora teres): 100%

Structure (SMILES): Cn1cc(C(=O)Nc2cc(F)ccc2-c2ccc(F)c(Cl)c2)c(C(F)F)n1 [drawing 20, reference compound]
- Efficacy in % [2]: 33%

Structure (SMILES): Cn1cc(C(=O)Nc2ccc(F)cc2-c2ccc(Cl)c(F)c2)c(C(F)F)n1 [drawing 21]
- Efficacy in % [2]: 78%

Structure (SMILES): Cn1cc(C(=O)Nc2cc(F)ccc2-c2ccc(F)c(Cl)c2)c(C(F)F)n1 [drawing 22, reference compound]
- Efficacy in % (Leptosphaeria nodorum): 0%

Structure (SMILES): Cn1cc(C(=O)Nc2ccc(F)cc2-c2ccc(Cl)c(F)c2)c(C(F)F)n1 [drawing 23]
- Efficacy in % (Leptosphaeria nodorum): 84%
